Data reported in paper PMC5643462, “Encrypted Antimicrobial Peptides from Plant Proteins” (Scientific Reports, 2017).
In brackets after ≈: the same amount, converted by molar mass. No end group written: not given here.

Assays:
Bacillus subtilis [1] = assay: Microbicidal activity (minimal killing concentration), plating on agar; assay type: cell-based, Bacillus subtilis ATCC 23857; details: 10 µL of MIC and raising concentrations up to 256 µM plated on Mueller-Hinton agar; 37 °C, 24 h; no growth; mean ± SD, 3 biological replicates
Description: (§1) The microbicidal activity of the IAPS was also evaluated. […] YPD agar and Mueller-Hinton agar were used for fungi/yeasts and bacteria, respectively. Meanwhile, susceptibility microplates were incubated again to evaluate if there would be any growing after a longer period. For both approaches, the minimal killing concentration (MKC) was defined as the concentration that no growth was observed after incubation. Three biological replicates were performed for each test.
(§2) Supplementary Material 07, Table S5
(§3) Table S5. Microorganisms and growth conditions.
(§4) Microorganisms Incubation Incubation Starting cell Growth Medium

Pseudomonas aeruginosa [2] = assay: as above; assay type: cell-based, Pseudomonas aeruginosa ATCC 27853; details: 10 µL of MIC and raising concentrations up to 256 µM plated on Mueller-Hinton agar; 37 °C, 24 h; no growth; mean ± SD, 3 biological replicates
Description: as §1, §2, §3, §4

Erwinia carotovora [3] = assay: as above; assay type: cell-based; details: 10 µL of MIC and raising concentrations up to 256 µM plated on Mueller-Hinton agar; 28 °C, 24 h; no growth; mean ± SD, 3 biological replicates
Description: as §1, §2, §3, §4
(§5) Temperature (°C) Time (h) concentration
(§6) Erwinia carotovora 28 24 5.0 x 10 5 Mueller -Hinton
(§7) Xanthomonas campestris pv. citri 28 24 5.0 x 10 5 Mueller -Hinton
(§8) Pseudomonas syringae pv. tabaci 28 24 5.0 x 10 5 Mueller -Hinton

[4] = test system: Pseudomonas syringae pv. tabaci; assay: as above; assay type: cell-based; details: 10 µL of MIC and raising concentrations up to 256 µM plated on Mueller-Hinton agar; 28 °C, 24 h; no growth; mean ± SD, 3 biological replicates
Description: as §1, §2, §3, §4, §5, §6, §7, §8

Bacillus cereus [5] = assay: as above; assay type: cell-based, Bacillus cereus ATCC 14579; details: 10 µL of MIC and raising concentrations up to 256 µM plated on Mueller-Hinton agar; 37 °C, 24 h; no growth; mean ± SD, 3 biological replicates
Description: as §1, §2, §3, §4

Escherichia coli [6] = assay: as above; assay type: cell-based, Escherichia coli ATCC 25922; details: 10 µL of MIC and raising concentrations up to 256 µM plated on Mueller-Hinton agar; 37 °C, 24 h; no growth; mean ± SD, 3 biological replicates
Description: as §1, §2, §3, §4

Erwinia carotovora [7] = assay: microbe, parasite or virus in culture; details: 24 h
Description: (§9) The susceptibility test of microorganisms was performed to evaluate the inhibitory activity of the IAPs. Protocols M7-A10[50], M27-A3[51] and M38-A2[52] from Clinical & Laboratory Standards Institute (CLSI) were used for bacteria, yeasts and filamentous fungi tests, respectively. Briefly, different concentration of IAPs (256-0.5 µM) were tested against 16 microorganisms, in a final volume of 100 µL. Media conditions, final cell concentration and incubation conditions are presented in Supplementary Material 07, Table S5. Three biological repetitions, with 2 technical replicates each, were performed for each test, on polystyrene flat-bottom 96 wells microplates. The minimum inhibitory concentration (MIC) was defined as the concentration that no cells/hyphae were detected when visualized by optical microscopy.
as §2, §3

Xanthomonas campestris [8] = assay: microbe, parasite or virus in culture; details: 24 h
Description: as §9, §2, §3

Escherichia coli [9] = assay: microbe, parasite or virus in culture
Description: as §9, §2, §3

[10] = test system: Pseudomonas syringae pv. tabaci; assay: microbe, parasite or virus in culture; details: 24 h
Description: as §9, §2, §3

Staphylococcus aureus [11] = assay: microbe, parasite or virus in culture
Description: as §9, §2, §3

Bacillus cereus [12] = assay: microbe, parasite or virus in culture
Description: as §9, §2, §3

Pseudomonas aeruginosa [13] = assay: microbe, parasite or virus in culture; details: Pseudomonas aeruginosa, ATCC27853, 24 h, read-out: Minimum inhibitory concentration, Pseudomonas aeruginosa
Description: as §9, §2, §3

Bacillus subtilis [14] = assay: microbe, parasite or virus in culture
Description: as §9, §2, §3

Xanthomonas campestris [15] = assay: Microbicidal activity (minimal killing concentration), plating on agar; assay type: cell-based, Xanthomonas campestris pv. citri; details: 10 µL of MIC and raising concentrations up to 256 µM plated on Mueller-Hinton agar; 28 °C, 24 h; no growth; mean ± SD, 3 biological replicates
Description: as §1, §2, §3, §4, §5, §6, §7, §8

Staphylococcus aureus [16] = assay: as above; assay type: cell-based, Staphylococcus aureus ATCC 25923; details: 10 µL of MIC and raising concentrations up to 256 µM plated on Mueller-Hinton agar; 37 °C, 24 h; no growth; mean ± SD, 3 biological replicates
Description: as §1, §2, §3, §4, §5, §6, §7, §8

human red blood cells = assay: Cytotoxicity: hemolysis of human red blood cells; assay type: cell-based; details: SC50 = IAP concentration that at least 50% of red blood cells remain intact; 128 µM–0.5 µM tested; PBS, 30 minutes, 37 °C; absorbance 540 nm
Description: The cytotoxicity of the selected IAPS was performed using human red blood cells in strict accordance with relevant guidelines and regulations (Ethical committee – UnB # 1.939.989). Different concentrations of IAPs (128 µM–0.5 µM) were incubated with a final concentration of 2.5 × 10^5 red blood cells.mL^−1. Briefly, 100 µL of red blood cells was incubated with 100 µL of different concentrations of each IAP, prepared in PBS, for 30 minutes at 37 °C, with constant shaking at 120 rpm. PBS and Triton X-100 0.1% (v/v) were used as negative and positive controls, respectively. After incubation, the solution was centrifuged at 900 × g for five minutes followed by transferring 50 µL of the supernatant to flat-bottom polystyrene 96-well micro plates containing 50 µL of PBS. Microplate reading was performed at a BioTek Multireader, using a wavelength of 540 nm. All tests were performed in 3 biological replicates, composed of 3 biological repetitions each. The obtained data was subtracted by the negative control and relative to the positive control, defined as 100% lysis.

Fusarium solani = details: RPMI 1640 pH 7.0; 28 °C, 48 h; start 2.5 x 10 3; 256-0.5 µM; mean ± SD of 3 biological repetitions (SD 0 not displayed); N/A = no antimicrobial activity observed
Description: as §9, §2, §3

[17] = test system: Fusarium oxysporum f.sp. vasinfectum; details: RPMI 1640 pH 7.0; 28 °C, 72 h; start 2.5 x 10 3; 256-0.5 µM; mean ± SD of 3 biological repetitions (SD 0 not displayed); N/A = no antimicrobial activity observed
Description: as §9, §2, §3

Rhizoctonia solani = details: RPMI 1640 pH 7.0; 28 °C, 48 h; start 2.5 x 10 3; 256-0.5 µM; mean ± SD of 3 biological repetitions (SD 0 not displayed); N/A = no antimicrobial activity observed
Description: as §9, §2, §3

Fusarium oxysporum = assay: microbe, parasite or virus in culture; details: RPMI 1640 pH 7.0; 28 °C, 48 h; start 2.5 x 10 3; 256-0.5 µM; mean ± SD of 3 biological repetitions (SD 0 not displayed); N/A = no antimicrobial activity observed
Description: as §9, §2, §3

Candida albicans = assay: microbe, parasite or virus in culture; details: ATCC 90028; RPMI 1640 pH 7.0; 37 °C, 48 h; start 2.5 x 10^3 cells; 256-0.5 µM; mean ± SD of 3 biological repetitions (SD 0 not displayed); no cells seen by optical microscopy; N/A = no antimicrobial activity observed
Description: as §9, §2, §3

Cryptococcus neoformans = assay: microbe, parasite or virus in culture; details: ATCC 28957; RPMI 1640 pH 7.0; 37 °C, 72 h; start 2.5 x 10^3 cells; 256-0.5 µM; mean ± SD of 3 biological repetitions (SD 0 not displayed); N/A = no antimicrobial activity observed
Description: as §9, §2, §3

Trichoderma asperellum = assay: microbe, parasite or virus in culture; details: RPMI 1640 pH 7.0; 28 °C, 48 h; start 2.5 x 10 3; 256-0.5 µM; mean ± SD of 3 biological repetitions (SD 0 not displayed); N/A = no antimicrobial activity observed
Description: as §9, §2, §3

Ramularia areola = assay: microbe, parasite or virus in culture; details: RPMI 1640 pH 7.0; 25 °C, 120 h; start 2.5 x 10 3; 256-0.5 µM; mean ± SD of 3 biological repetitions (SD 0 not displayed); N/A = no antimicrobial activity observed
Description: as §9, §2, §3

[18] = Mueller-Hinton, 28 °C, start 5.0 x 10^5 cells, 256-0.5 µM, mean ± SD of 3 biological repetitions (SD 0 not displayed), N/A = no antimicrobial activity observed

**Q.** Which results are given for `CNC(C)C1CCC(N)C(OC2C(N)CC(N)C(OC3OCC(C)(O)C(NC)C3O)C2O)O1` (centres unmarked) [Gentamicin]?
**A.** Minimum microbicidal concentration, Bacillus subtilis (Bacillus subtilis [1]): 0.033 ± 0.0 µM; Minimum microbicidal concentration, Pseudomonas aeruginosa (Pseudomonas aeruginosa [2]): 0.52 ± 0.0 µM; Minimum microbicidal concentration, Erwinia carotovora (Erwinia carotovora [3]): 0.53 ± 0.0 µM; Minimum microbicidal concentration, Pseudomonas syringae pv. tabaci [4]: 0.52 ± 0.0 µM; Minimum microbicidal concentration, Bacillus cereus (Bacillus cereus [5]): 8.37 ± 0.0 µM; Minimum microbicidal concentration, Escherichia coli (Escherichia coli [6]): 0.52 ± 0.0 µM; MIC (Erwinia carotovora [7]; Pectobacterium carotovorum, read-out: Minimum inhibitory concentration, Erwinia carotovora): 0.53 µM (≈ 0.253 µg/mL); MIC (Xanthomonas campestris [8]; Xanthomonas campestris, read-out: Minimum inhibitory concentration, Xanthomonas campestris): 0.53 µM (≈ 0.253 µg/mL); MIC (Escherichia coli [9]; Escherichia coli, ATCC25922, 24 h, read-out: Minimum inhibitory concentration, Escherichia coli): 0.52 µM (≈ 0.248 µg/mL); MIC ([10]; Pseudomonas syringae, read-out: Minimum inhibitory concentration, Pseudomonas syringae pv. tabaci): 0.52 µM (≈ 0.248 µg/mL); MIC (Staphylococcus aureus [11]; Staphylococcus aureus, ATCC25923, 24 h, read-out: Minimum inhibitory concentration, Staphylococcus aureus): 0.26 µM (≈ 0.124 µg/mL); MIC (Bacillus cereus [12]; Bacillus cereus, ATCC14579, 24 h, read-out: Minimum inhibitory concentration, Bacillus cereus): 8.37 µM (≈ 4 µg/mL); MIC (Pseudomonas aeruginosa [13]): 0.13 µM (≈ 0.0621 µg/mL); MIC (Bacillus subtilis [14]; Bacillus subtilis, ATCC23857, 24 h, read-out: Minimum inhibitory concentration, Bacillus subtilis): 0.033 µM (≈ 0.0158 µg/mL); Minimum microbicidal concentration, Xanthomonas campestris (Xanthomonas campestris [15]): 0.53 ± 0.0 µM; Minimum microbicidal concentration, Staphylococcus aureus (Staphylococcus aureus [16]): 0.52 ± 0.0 µM

**Q.** Which results are given for FFGHIWHGARTLFRDVFA-NH2 [Cs02]?
**A.** Hemolytic activity of human red blood cells (%) SC50 (human red blood cells): >128 µM; Minimum inhibitory concentration, Fusarium solani (Fusarium solani): 8.0 µM; Minimum inhibitory concentration, Fusarium oxysporum f.sp. vasinfectum [17]: 13.33 ± 4.61 µM; Minimum inhibitory concentration, Rhizoctonia solani (Rhizoctonia solani): 32.0 µM; Minimum inhibitory concentration, Erwinia carotovora (Erwinia carotovora [7]; [18]): 32.0 µM; Minimum inhibitory concentration, Xanthomonas campestris (Xanthomonas campestris [8]; pv. citri, Mueller-Hinton, 28 °C, start 5.0 x 10^5 cells, 256-0.5 µM, mean ± SD of 3 biological repetitions (SD 0 not displayed), N/A = no antimicrobial activity observed): 32.0 µM; Minimum inhibitory concentration, Fusarium oxysporum (Fusarium oxysporum): 16.0 µM; Minimum inhibitory concentration, Candida albicans (Candida albicans): 32.0 µM; Minimum inhibitory concentration, Cryptococcus neoformans (Cryptococcus neoformans): 32.0 µM; Minimum inhibitory concentration, Escherichia coli (Escherichia coli [9]; ATCC 25922, Mueller-Hinton, 37 °C, 24 h, start 5.0 x 10^5 cells, 256-0.5 µM, mean ± SD of 3 biological repetitions (SD 0 not displayed), N/A = no antimicrobial activity observed): 8.0 µM; Minimum inhibitory concentration, Pseudomonas syringae pv. tabaci [10, 18]: 4.0 µM; Minimum inhibitory concentration, Staphylococcus aureus (Staphylococcus aureus [11]; ATCC 25923, Mueller-Hinton, 37 °C, 24 h, start 5.0 x 10^5 cells, 256-0.5 µM, mean ± SD of 3 biological repetitions (SD 0 not displayed), N/A = no antimicrobial activity observed): 8.0 µM; Minimum inhibitory concentration, Bacillus cereus (Bacillus cereus [12]; ATCC 14579, Mueller-Hinton, 37 °C, 24 h, start 5.0 x 10^5 cells, 256-0.5 µM, mean ± SD of 3 biological repetitions (SD 0 not displayed), N/A = no antimicrobial activity observed): 64.0 µM; Minimum inhibitory concentration, Trichoderma asperellum (Trichoderma asperellum): 8.0 µM; Minimum inhibitory concentration, Bacillus subtilis (Bacillus subtilis [14]; ATCC 23857, Mueller-Hinton, 37 °C, 24 h, start 5.0 x 10^5 cells, 256-0.5 µM, mean ± SD of 3 biological repetitions (SD 0 not displayed), N/A = no antimicrobial activity observed): 3.33 ± 1.15 µM; Minimum inhibitory concentration, Ramularia areola (Ramularia areola): 16.0 µM
